Laboratory results published in publication PMC10223552 (Pharmaceuticals, 2023).
Read-outs that look alike come from different tables or passages of the source.

How the values were obtained:
[1] = target: T1, hH3R (Homo sapiens, UniProt Q9Y5N1); experiment: biochemical; assay type: binding
T1 construct: expressed in transfected cells
Description: All newly synthesized compounds were evaluated as H3R antagonists/inverse agonists on the guinea pig ileum (gpH3R), stimulated electrically to induce contractions. The distinct affinity profile and species-dependent pharmacology of H3R ligands are known. […] Therefore, to compare species differences, all newly synthesized compounds were subjected to radioligand displacement assay in membrane fractions of HEK-293 cells stably expressing hH3R. […] Ex vivo assay for histamine H3R and H1R antagonists were measured on the isolated guinea pig ileum stimulated to contractions by histamine. The pA2-values were calculated according to Arunlakshana and Schild. The radioligand-displacement binding assay was performed in membrane fractions of HEK-293 cells stably expressing hH3R. Cell cultivation and membrane preparation was performed according to Kottke et al.. The Ki values were calculated from the IC50 values using the Cheng–Prusoff equation [37]. The statistical calculations were performed on –log(Ki). […] The inhibitory activities of novel ADS compounds were assessed in spectrophotometric Ellman’s assay using AChE from electric eel (eeAChE) and BuChE from horse serum (eqBuChE).
3.3 hH3R radioligand displacement binding assay.
The radioligand displacement binding assay was performed in membrane fractions of HEK-293 cells stably expressing hH3R. Cell cultivation and membrane preparation was performed according to Kottke et al. [T. Kottke, […]
radioligand displacement assay, radioactively labeled [3H]Nα-methylhistamine was used at a final concentration […]
The total assay volume was set to 200 µL. The compounds were tested in several appropriate concentrations between 100 µM and 0.1 nM. Pipetting was partly done by Freedom Evo® (Tecan).
The membrane fraction (20 […]
µg/well), test compounds and radiolabeled ligand were incubated for 90 minutes at 25 °C while shaking. The bound radioligand was separated from the free radioligand by filtration through GF/B filters pre-treated with 0.3 % (m/v) polyethyleneimine using a cell harvester. Radioactivity was determined by liquid scintillation counting using a MicroBeta® Trilux (Perkin Elmer). The data was obtained in duplicates in at least three independent experiments. Non-specific binding was subtracted from the raw data to calculate specific-binding values. The evaluation was performed with GraphPad Prism 6.1 (San Diego, CA, USA) using non-linear regression (one-site competition with a logarithmic scale). The Ki values were calculated from the IC50 values using the Cheng-Prusoff […]
equation. [C. […] The statistical calculations […]
were performed on –log(Ki).

[2] = target: T2, gpH1R (Cavia porcellus, UniProt P31389); experiment: Ex vivo assay for histamine H1R antagonists on guinea pig ileum stimulated by histamine (+atropine); settings: gpH1R +Atropine pA2 ± sem, isolated guinea pig ileum, vs histamine, 0.05 µM atropine
T2 construct: from tissue; host or cells: isolated distal ileum of male guinea pigs
T2 sequence (P31389 whole entry): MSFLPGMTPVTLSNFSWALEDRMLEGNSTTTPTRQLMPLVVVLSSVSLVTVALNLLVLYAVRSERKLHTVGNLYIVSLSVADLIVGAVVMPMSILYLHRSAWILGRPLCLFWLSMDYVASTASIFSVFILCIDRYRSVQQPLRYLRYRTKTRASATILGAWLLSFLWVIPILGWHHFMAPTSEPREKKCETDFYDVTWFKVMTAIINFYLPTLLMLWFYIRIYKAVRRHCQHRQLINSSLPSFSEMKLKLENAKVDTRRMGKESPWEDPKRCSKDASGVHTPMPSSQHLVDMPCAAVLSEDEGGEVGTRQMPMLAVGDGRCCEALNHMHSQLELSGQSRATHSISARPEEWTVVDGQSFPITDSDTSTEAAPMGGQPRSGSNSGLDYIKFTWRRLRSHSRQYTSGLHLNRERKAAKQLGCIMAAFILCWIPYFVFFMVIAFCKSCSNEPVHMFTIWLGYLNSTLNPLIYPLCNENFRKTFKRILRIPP
Description: A second histamine receptor located in the guinea pig ileum is H1R. The antagonistic effect at H1R was measured on the isolated guinea pig ileum stimulated to contractions by histamine. To eliminate the impact of muscarinic receptors located on the tested tissue, 0.05 µM of atropine was added to the Krebs buffer.
(§1) Ex vivo assay for histamine H3R and H1R antagonists were measured on the isolated guinea pig ileum stimulated to contractions by histamine. The pA2-values were calculated according to Arunlakshana and Schild. The radioligand-displacement binding assay was performed in membrane fractions of HEK-293 cells stably expressing hH3R. Cell cultivation and membrane preparation was performed according to Kottke et al.. The Ki values were calculated from the IC50 values using the Cheng–Prusoff equation [37]. The statistical calculations were performed on –log(Ki). […] The inhibitory activities of novel ADS compounds were assessed in spectrophotometric Ellman’s assay using AChE from electric eel (eeAChE) and BuChE from horse serum (eqBuChE).
3.2 Ex vivo assay for histamine H1R receptor antagonists on guinea pig ileum.
Male guinea pigs, weighing 300-400 g were euthanized by a blow to the neck. A 20-30 cm length of the distal ileum, apart from the terminal 5 cm was rapidly removed and placed in phosphate buffer at room temperature (pH […]
Aldrich, St. Louis, MO, USA) (1·10-6 mol/L). The intraluminal content was rinsed and the isolated intestine was cut into 1.5-2 cm segments. The preparations were mounted isotonically in a 20 mL organ bath filled with Krebs […]
a constant load of 0.5 g (Hugo Sachs Hebel-Messvorsatz (Tl-2)/HF-modem; Hugo Sachs Elektronik, Hugstetten, Germany) connected to a pen recorder (Kipp & Zonen BD41, Delft, Holland). During an equilibration period of 40 min, the Krebs buffer was changed every 10 min. The first cumulative concentration-response curve was determined to histamine (Sigma-Aldrich, St. Louis, MO, USA) (10 nM - 10 mM) at increasing concentration spaced by three or 3.3-fold. The second to the fourth (or fifth) curve was measured in the presence of an increasing concentration of antagonist (incubation time 10 min). The pA2-values were calculated according to Arunlakshana and Schild. [Br J Pharmacol Chemother. […] Statistical analysis was carried out with the Students’ t-test. In all tests, a p<0.05 was considered statistically significant. The pA2 values were compared with the affinity

[3] = target: T3, eeAChE (Electrophorus electricus, UniProt O42275); experiment: biochemical; set-up: species or system electric eel; settings: for inhibition at 10 µM: read-out: eeAChE % inh. (10 µM) ± SD
T3 construct: purchased Sigma–Aldrich (Steinheim, Germany)
T3 sequence (O42275 24-633): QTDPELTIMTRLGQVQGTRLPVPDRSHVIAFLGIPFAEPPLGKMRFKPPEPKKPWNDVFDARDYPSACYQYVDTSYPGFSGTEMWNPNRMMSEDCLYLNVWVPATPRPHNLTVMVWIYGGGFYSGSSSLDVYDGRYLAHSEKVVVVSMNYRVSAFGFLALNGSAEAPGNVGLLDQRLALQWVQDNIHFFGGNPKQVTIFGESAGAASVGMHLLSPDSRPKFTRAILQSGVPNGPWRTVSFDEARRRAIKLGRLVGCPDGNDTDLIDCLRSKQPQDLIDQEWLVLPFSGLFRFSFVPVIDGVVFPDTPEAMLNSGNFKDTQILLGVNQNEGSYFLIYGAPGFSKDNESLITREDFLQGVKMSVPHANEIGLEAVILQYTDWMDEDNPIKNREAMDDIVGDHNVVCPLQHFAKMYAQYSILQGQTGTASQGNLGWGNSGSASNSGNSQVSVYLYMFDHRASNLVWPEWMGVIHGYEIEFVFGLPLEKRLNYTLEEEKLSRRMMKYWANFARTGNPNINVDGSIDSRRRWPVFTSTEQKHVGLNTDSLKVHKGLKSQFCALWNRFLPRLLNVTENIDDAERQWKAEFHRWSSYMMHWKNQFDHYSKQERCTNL

[4] = target: T4, gpH3R (Cavia porcellus, UniProt Q9JI35); experiment: Ex vivo assay for histamine H3R antagonists on electrically stimulated guinea pig ileum
T4 construct: from tissue; host or cells: isolated distal ileum of male guinea pigs
T4 sequence (Q9JI35 whole entry): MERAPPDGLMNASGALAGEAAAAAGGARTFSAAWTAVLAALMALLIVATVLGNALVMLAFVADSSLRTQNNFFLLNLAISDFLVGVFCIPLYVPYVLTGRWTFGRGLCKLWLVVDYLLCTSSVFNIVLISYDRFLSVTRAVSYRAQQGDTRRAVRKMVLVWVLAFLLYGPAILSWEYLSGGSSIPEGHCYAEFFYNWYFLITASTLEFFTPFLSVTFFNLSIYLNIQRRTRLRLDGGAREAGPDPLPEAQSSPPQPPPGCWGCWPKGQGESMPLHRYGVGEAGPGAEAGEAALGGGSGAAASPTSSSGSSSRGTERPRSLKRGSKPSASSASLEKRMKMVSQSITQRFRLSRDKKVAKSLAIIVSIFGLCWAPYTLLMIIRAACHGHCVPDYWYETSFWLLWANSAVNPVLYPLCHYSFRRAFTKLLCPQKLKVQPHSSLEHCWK
Description: All newly synthesized compounds were evaluated as H3R antagonists/inverse agonists on the guinea pig ileum (gpH3R), stimulated electrically to induce contractions. The distinct affinity profile and species-dependent pharmacology of H3R ligands are known. […] Therefore, to compare species differences, all newly synthesized compounds were subjected to radioligand displacement assay in membrane fractions of HEK-293 cells stably expressing hH3R.
as §1
3. Pharmacological assay results.
3.1. Ex vivo assay for histamine H3R receptor antagonists on guinea pig ileum.
Male guinea pigs, weighing 300-400 g were euthanized by a blow to the neck. Following this, a 20-30 cm length of the distal ileum, apart from the terminal 5 cm was rapidly removed and placed in phosphate buffer at room […]
indomethacin (Sigma-Aldrich, St. Louis, MO, USA) (1·10-6 mol/L). The intraluminal content was rinsed and the isolated intestine was cut into 1.5-2 cm segments. The preparations were mounted between two platinum electrodes […]
load of 1.0 g (Hugo Sachs Hebel-Messvorsatz (Tl-2)/HF-modem; Hugo Sachs Elektronik, Hugstetten, Germany) connected to a pen recorder (Kipp & Zonen BD41, Delft, Holland). During an equilibration period of 60 min, the Krebs buffer was changed every 10 min. The preparations were then continuously stimulated at 15-20 V at a frequency of 0.1 Hz for a duration of 0.5 ms, with rectangular-wave electrical pulses (Grass Stimulator S-88; Grass Instruments Co., Quincy, Massachusetts, USA). […] Five minutes […]
before (R)-(−)-α-methylhistamine (RAMH) (Toronto Research Chemicals Inc., North York, Canada), […]
added. The first cumulative concentration-response curve was determined to RAMH (10 nM – 10 mM) at an […]
The second to fourth curve was measured against increasing antagonist concentration (incubation time 20 min). The pA2-values were calculated according to Arunlakshana and Schild. [Br J Pharmacol Chemother. […] Statistical analysis was carried out with the Students’ t-test. In all tests, a p<0.05 was considered statistically significant. The pA2 values were compared with the affinity of thioperamide (Sigma-Aldrich, St. Louis, MO, USA).

[5] = target: eqBuChE (Equus caballus, UniProt P81908); experiment: biochemical; settings: for inhibition at 10 µM: read-out: eqBuChE % inh. (10 µM) ± SD; for IC50: read-out: eqBuChE IC50 ± sem
Chain of eqBuChE (P81908 whole entry): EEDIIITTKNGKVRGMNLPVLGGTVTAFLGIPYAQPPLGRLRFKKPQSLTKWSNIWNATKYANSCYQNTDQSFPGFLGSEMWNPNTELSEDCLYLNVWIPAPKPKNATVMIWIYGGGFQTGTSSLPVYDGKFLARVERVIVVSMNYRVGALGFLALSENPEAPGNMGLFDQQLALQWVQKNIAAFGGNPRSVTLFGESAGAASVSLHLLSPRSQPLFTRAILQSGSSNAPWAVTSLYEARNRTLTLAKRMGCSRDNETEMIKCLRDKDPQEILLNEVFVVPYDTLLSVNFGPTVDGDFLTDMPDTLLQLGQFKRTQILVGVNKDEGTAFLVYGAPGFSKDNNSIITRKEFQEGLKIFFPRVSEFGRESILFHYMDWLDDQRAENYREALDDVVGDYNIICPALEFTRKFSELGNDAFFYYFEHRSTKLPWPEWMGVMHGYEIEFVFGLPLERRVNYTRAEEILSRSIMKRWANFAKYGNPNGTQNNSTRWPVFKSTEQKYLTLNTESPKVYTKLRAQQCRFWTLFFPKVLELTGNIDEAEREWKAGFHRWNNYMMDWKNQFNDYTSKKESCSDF

[6] = hH3R -log(Ki) ± sem, mean ± sem, at least three independent experiments
[7] = mean ± sem, at least three independent experiments, read-out: hH3R -log(Ki) ± sem (converted)
[8] = isolated guinea pig ileum, vs RAMH, read-out: gpH3R pA2 ± sem (converted)

T1 sequence (Q9Y5N1 whole entry): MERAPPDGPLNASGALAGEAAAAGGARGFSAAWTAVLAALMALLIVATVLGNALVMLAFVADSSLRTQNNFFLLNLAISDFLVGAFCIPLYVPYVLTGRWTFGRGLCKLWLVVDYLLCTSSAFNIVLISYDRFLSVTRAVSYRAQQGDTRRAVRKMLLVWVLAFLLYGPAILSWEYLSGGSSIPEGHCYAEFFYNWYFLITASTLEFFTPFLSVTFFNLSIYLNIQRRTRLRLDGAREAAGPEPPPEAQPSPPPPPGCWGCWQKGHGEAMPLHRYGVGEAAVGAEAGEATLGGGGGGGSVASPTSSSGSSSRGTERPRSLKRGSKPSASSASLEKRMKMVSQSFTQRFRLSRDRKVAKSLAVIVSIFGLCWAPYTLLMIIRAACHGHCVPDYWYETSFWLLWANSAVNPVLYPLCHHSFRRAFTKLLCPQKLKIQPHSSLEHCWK

| SMILES | Kd ([1]; radioligand used at 2 nM) | Ki [1, 6] | Kb [2] | inhibition at 10 µM [3] | Kb [4] | inhibition at 10 µM [5] | IC50 [5] | Ki [1, 7] | gpH3R pA2 ± sem ([4]; isolated guinea pig ileum, vs RAMH, 20 min) | Ki ([1]; hH3R Ki) | IC50 ([3]; eeAChE IC50 ± sem) | Kb [4, 8] |
| --- | --- | --- | --- | --- | --- | --- | --- | --- | --- | --- | --- | --- |
| CNCCc1cnc[nH]1 [[3H]Nα-methylhistamine, reference compound] | 0.00308 µM |  |  |  |  |  |  |  |  |  |  |  |
| N=C(N)N(CCCCN1CCCCC1)CCCc1ccc(Cl)cc1 [ADS10300] |  | 0.603 µM | 2.51 µM | 40.7 ± 1.8% | 0.0479 µM | 75.2 ± 0.4% | 2.4 ± 0.1 µM |  |  |  |  |  |
| N=C(N)N(CCCCN1CCN(CCCCCCCOc2ccccc2)CC1)Cc1ccc(C(F)(F)F)cc1 [ADS1020] |  |  | 0.871 µM |  |  |  |  | 0.437 µM | 8.49 ± 0.05 |  |  |  |
| N=C(NCCCCN1CCCCC1)NCCCc1ccc(Cl)cc1 [ADS10301] |  | 0.191 µM | 0.347 µM | 11.3 ± 0.4% | 0.0229 µM | 60.4 ± 0.7% | 5.9 ± 0.1 µM |  |  | < 0.2 µM |  |  |
| N=C(N)N(CCCCN1CCN(CCCCCCCOc2ccc(Cl)cc2)CC1)Cc1ccc(C(F)(F)F)cc1 [ADS10376] |  | 0.398 µM | 0.214 µM | 27.8 ± 5.1% | 0.00708 µM | 71.4 ± 0.6% | 4.9 ± 0.2 µM |  |  |  |  |  |
| N=C(N)N(CCCCc1ccc(Cl)cc1)CCCN1CCCCC1 [ADS10312] |  | 0.525 µM | 1.38 µM | 22.2 ± 3.9% | 0.0933 µM | 72.6 ± 5.2% | 3.5 ± 0.1 µM |  |  |  |  |  |
| N=C(N)N(CCCc1ccc(Cl)cc1)CCCN1CCCCC1 [ADS10292] |  | 2.69 µM | 1.2 µM | 50.6 ± 0.8% | 0.0457 µM | 54.3 ± 4.7% | 8.4 ± 0.2 µM |  |  |  | 10.9 µM |  |
| N=C(N)N(CCCCN1CCN(CCCOCCCc2ccccc2)CC1)Cc1ccccc1 [ADS10349] |  |  | 0.347 µM | 6.4 ± 1.3% | 0.0457 µM | 32.4 ± 4.2% |  | 2.51 µM |  |  |  |  |
| S=C(NC1CCCCC1)N1CCC(c2cnc[nH]2)CC1 [Thioperamide, reference compound] |  |  |  |  |  |  |  |  |  |  |  | 0.00155 µM |
| N=C(N)N(CCCCN1CCN(CCCOCCCc2ccc(Cl)cc2)CC1)Cc1ccc(C(F)(F)F)cc1 [ADS10279] |  | 1.07 µM | 0.135 µM | 47.4 ± 1.2% | 0.00525 µM | 67.5 ± 0.5% | 4.8 ± 0.1 µM |  |  |  |  |  |
| N=C(N)N(CCCCN1CCN(CCCOCCCc2ccccc2)CC1)Cc1ccc(C(F)(F)F)cc1 [ADS10350] |  | 2.69 µM | 0.269 µM | 1 ± 0.2% |  | 28.3 ± 3.2% |  |  |  |  |  | 0.0288 µM |
| N=C(N)N(CCCCN1CCN(CCCCCCCOc2ccc(Cl)cc2)CC1)Cc1ccccc1 [ADS10377] |  | 0.282 µM | 0.123 µM | 34.3 ± 2.6% | 0.0151 µM | 84.6 ± 1.5% | 1.9 ± 0.1 µM |  |  |  |  |  |
| N=C(N)N(CCCCN1CCN(CCCOCCCc2ccc(Cl)cc2)CC1)Cc1ccccc1 [ADS10278] |  |  | 0.117 µM | 44 ± 0.9% | 0.0148 µM | 76.6 ± 1.3% | 2 ± 0.1 µM | 0.324 µM |  |  |  |  |
| N=C(NCCCc1ccc(Cl)cc1)NCCCN1CCCCC1 [ADS10298] |  | 0.537 µM | 0.132 µM | 39.8 ± 2.6% |  | 20.3 ± 0.8% |  |  |  |  |  | 0.0417 µM |
| N=C(NCCCCc1ccc(Cl)cc1)NCCCN1CCCCC1 [ADS10306] |  | 0.195 µM | 0.0676 µM | 17.8 ± 0.7% | 0.0479 µM | 89.4 ± 0.1% | 1.6 µM |  |  | < 0.2 µM |  |  |
